Laboratory results taken from patent publication US20160038505A1, “METHODS AND COMPOSITIONS FOR TREATING IMPULSE CONTROL DISORDER, ANXIETY-RELATED DISORDERS, VIOLENCE AND/OR ANGER, OR REGULATING FOOD INTAKE” (priority 2014, published 2016).

Columns and labels:
cynomolgus monkey = test: Single dose toxicity in cynomolgus monkeys; type: in vivo; conditions: oral gavage
Experimental: The objective of the study was to determine the toxicity and toxicokinetic profile of noribogaine following oral (gavage) administration to the cynomolgus monkey. Each dose was followed by a 7 day washout period. Dosing was staggered by 45 minutes. On study day 15, one animal was administered 80 mg/kg and the other animal was administered 160 mg/kg. The test article was administered as follows in Table 1:
Parameters monitored on the study included: mortality, clinical signs and body weights. Blood samples were collected for TK evaluation. […] The single dose maximum tolerated dose (MTD) was determined to be greater than 160 mg/kg based on the parameters monitored during the study.

[1] = system: healthy, drug-free male volunteers; test: Cold pressor test in healthy volunteers; type: in vivo, human; conditions: 3-60 mg single oral dose, 1° C. water
Experimental: Analgesic effect was assessed based on duration of hand immersion in ice water and on visual analog scale (VAS) pain scores upon hand removal from the water bath.
Safety and tolerability of noribogaine were tested in the group of volunteers from Example 9. […] Safety evaluations included clinical monitoring, recording of adverse events (AEs), safety laboratory tests, vital signs, ECG telemetry from −2 h to 6 h after dosing, and 12-lead electrocardiograms (ECGs) up to 216 hours post-dosing.

[2] = system: opioid-dependent participants; test: Treatment emergent adverse events in opioid-dependent participants (Phase IB); type: in vivo, human
Experimental: This example is to illustrate that noribogaine can be administered at a therapeutic dosing while maintaining an acceptable QT interval.
See PCT Application No. PCT/US2013/069235, filed Nov. 8, 2013, which is incorporated herein by reference in its entirety.
Three cohorts of nine (9) subjects (6 administered noribogaine and 3 administered placebo in each cohort) were evaluated for tolerability, pharmacokinetics, and efficacy. Cohort 1 received a single dose of 60 mg noribogaine or placebo. Cohort 2 received a single dose of 120 mg noribogaine or placebo. Cohort 3 received a single dose of 180 mg noribogaine or placebo.

Which results are given for `CC[C@H]1CC2C[C@H]3c4[nH]c5ccc(O)cc5c4CCN(C2)C13` [noribogaine]?
single dose maximum tolerated dose (MTD) (cynomolgus monkey): greater than 160 mg/kg; mortality and clinical signs (cynomolgus monkey; doses up to and including 160 mg/kg): No mortality or treatment related clinical signs; analgesic effect (duration of hand immersion, VAS pain scores) [1]: no analgesic effect; Adverse event: Catheter Site Infection ([2]; 60 mg (N = 6)): 0; Adverse event: Catheter Site Pain ([2]; 60 mg (N = 6)): 0; Adverse event: Catheter Site Related Reaction ([2]; 60 mg (N = 6)): 0; Adverse event: Cellulitis ([2]; 60 mg (N = 6)): 0; Adverse event: Diarrhoea ([2]; 60 mg (N = 6)): 0; Adverse event: Dry Mouth ([2]; 60 mg (N = 6)): 0; Adverse event: Ear and Labyrinth Disorders ([2]; 60 mg (N = 6)): 0; Adverse event: Epistaxis ([2]; 60 mg (N = 6)): 0; Adverse event: Euphoric Mood ([2]; 60 mg (N = 6)): 0; Adverse event: General Disorders and Administration Site Conditions ([2]; 60 mg (N = 6)): 0; Adverse event: Hyperaesthesia ([2]; 60 mg (N = 6)): 0; Adverse event: Infections and Infestations ([2]; 60 mg (N = 6)): 0; Adverse event: Limb Discomfort ([2]; 60 mg (N = 6)): 0; Adverse event: Malaise ([2]; 60 mg (N = 6)): 0; Adverse event: Nausea ([2]; 60 mg (N = 6)): 0; Adverse event: Oropharyngeal Pain ([2]; 60 mg (N = 6)): 0; Adverse event: Pseudoparalysis ([2]; 60 mg (N = 6)): 0; Adverse event: Respiratory, Thoracic and Mediastinal Disorders ([2]; 60 mg (N = 6)): 0; Adverse event: Rhinorrhoea ([2]; 60 mg (N = 6)): 0; Adverse event: Skin Discomfort ([2]; 60 mg (N = 6)): 0; Adverse event: Skin Irritation ([2]; 60 mg (N = 6)): 0; Adverse event: Skin and Subcutaneous Tissue Disorders ([2]; 60 mg (N = 6)): 0; Adverse event: Somnoience ([2]; 60 mg (N = 6)): 0; Adverse event: Tinnitus ([2]; 60 mg (N = 6)): 0; Adverse event: Tremor ([2]; 60 mg (N = 6)): 0; Adverse event: Urinary Tract Infection ([2]; 60 mg (N = 6)): 0; Adverse event: Vomiting ([2]; 60 mg (N = 6)): 0; Adverse event: Back Pain ([2]; 120 mg (N = 6)): 0; Adverse event: Catheter Site Infection ([2]; 120 mg (N = 6)): 0; Adverse event: Catheter Site Related Reaction ([2]; 120 mg (N = 6)): 0; Adverse event: Depressed Mood ([2]; 120 mg (N = 6)): 0; Adverse event: Dry Eye ([2]; 120 mg (N = 6)): 0; Adverse event: Dyspepsia ([2]; 120 mg (N = 6)): 0; Adverse event: Euphoric Mood ([2]; 120 mg (N = 6)): 0; Adverse event: Limb Discomfort ([2]; 120 mg (N = 6)): 0; Adverse event: Malaise ([2]; 120 mg (N = 6)): 0; Adverse event: Musculoskeletal and Connective Tissue Disorders ([2]; 120 mg (N = 6)): 0; Adverse event: Psychiatric Disorders ([2]; 120 mg (N = 6)): 0; Adverse event: Somnoience ([2]; 120 mg (N = 6)): 0; Adverse event: Urinary Tract Infection ([2]; 120 mg (N = 6)): 0; Adverse event: Catheter Site Infection ([2]; 180 mg (N = 6)): 0; Adverse event: Catheter Site Pain ([2]; 180 mg (N = 6)): 0; Adverse event: Depressed Mood ([2]; 180 mg (N = 6)): 0; Adverse event: Diarrhoea ([2]; 180 mg (N = 6)): 0; Adverse event: Dry Eye ([2]; 180 mg (N = 6)): 0; Adverse event: Dyspepsia ([2]; 180 mg (N = 6)): 0; Adverse event: Ear and Labyrinth Disorders ([2]; 180 mg (N = 6)): 0; Adverse event: Epistaxis ([2]; 180 mg (N = 6)): 0; Adverse event: Euphoric Mood ([2]; 180 mg (N = 6)): 0; Adverse event: Hyperaesthesia ([2]; 180 mg (N = 6)): 0; Adverse event: Malaise ([2]; 180 mg (N = 6)): 0; Adverse event: Oropharyngeal Pain ([2]; 180 mg (N = 6)): 0; Adverse event: Pseudoparalysis ([2]; 180 mg (N = 6)): 0; Adverse event: Psychiatric Disorders ([2]; 180 mg (N = 6)): 0; Adverse event: Respiratory, Thoracic and Mediastinal Disorders ([2]; 180 mg (N = 6)): 0; Adverse event: Rhinorrhoea ([2]; 180 mg (N = 6)): 0; Adverse event: Skin Discomfort ([2]; 180 mg (N = 6)): 0; Adverse event: Skin Irritation ([2]; 180 mg (N = 6)): 0; Adverse event: Skin and Subcutaneous Tissue Disorders ([2]; 180 mg (N = 6)): 0; Adverse event: Somnoience ([2]; 180 mg (N = 6)): 0; Adverse event: Tinnitus ([2]; 180 mg (N = 6)): 0; Adverse event: Tremor ([2]; 180 mg (N = 6)): 0; hallucinatory effects ([2]; 60, 120 or 180 mg single dose): no hallucinatory effects
